Source: ChEMBL document CHEMBL5729293, “Inhibitors of KEAP1-Nrf2 protein-protein interaction” (2022)

Experiment: Fluorescence Based Assay: The details of the KEAP1 KELCH ThermoFluor® Assay Construct are as follows: Kelch domain of human KEAP 1 (321-624 aa) was used in the assay. The protein was expressed in E. coli with 6His tag that was cleaved prior to receipt for use.ThermoFluor® experiments were carried out using instruments owned by Janssen Research and Discovery, L.L.C. through its acquisition of 3-Dimensional Pharmaceuticals, Inc. 1,8-ANS (Invitrogen) was used as a fluorescent dye. Protein (KEAP Kelch) and compound solutions were dispensed into black 384-well polypropylene PCR microplates (Abgene) and overlayed with silicone oil (1 μL, Fluka, type DC 200) to prevent evaporation.Reference wells contained KEAP Kelch without compounds, and the assay conditions were as follows: 1.1 μM (0.037mg/mL) KEAP Kelch, 80 μM 1,8-ANS, 25 mM PIPES, pH 7.0, 100 mM NaCl, 0.002% Tween-20.

| SMILES | Kd |
| --- | --- |
| CC[C@@H]1CN(Cc2cc([C@H](CC(=O)O)c3cc(OC(F)F)c4c(c3)nnn4C)ccc2C)S(=O)(=O)c2cccnc2O1 | < 1 nM |
| CCn1nnc2c(C)c([C@H](CC(=O)O)c3ccc(C)c(CN4CC5(COC5)Oc5ncccc5S4(=O)=O)n3)ccc21 | < 1 nM |
| Cc1ccc(C(CC(=O)O)c2ccc3c(nnn3C3CC3)c2C)cc1CN1C[C@@H]2CCCCN2c2ccccc2S1(=O)=O (some centres not stated) | < 1 nM |
| Cc1cnc2c(c1)S(=O)(=O)N(Cc1cc([C@@H](c3ccc4c(nnn4C4CC4)c3C)C(C)(C)C(=O)O)cnc1C)CC1(COC1)O2 | < 1 nM |
| Cc1ccc([C@@H](c2ccn3c(C(F)F)nnc3c2C)C(C)(C)C(=O)O)cc1CN1CC2(CCOCC2)Oc2nc(OCCN3CCCCC3)c(C)cc2S1(=O)=O | < 1 nM |
| Cc1ccc([C@H](CC(=O)O)c2ccn3c(C(F)(F)F)nnc3c2C)nc1CN1C[C@H]2CCCCN2c2ncc(C#N)cc2S1(=O)=O | < 1 nM |
| CCn1nnc2c(C)c(C(CC(=O)O)c3ccc(C)c(CN4CC5(CCOCC5)Oc5ccc(F)cc5S4(=O)=O)n3)ccc21 (configuration not stated) | < 1 nM |
| Cc1cnc2c(c1)S(=O)(=O)N(Cc1cc([C@H](CC(=O)O)c3ccn4c(C(F)F)nnc4c3C)ccc1C)CC1(CC1)O2 | < 1 nM |
| Cc1cc2cc([C@H](CC(=O)O)c3ccc(C)c(CN4C[C@@H]5CCCCN5c5ncccc5S4(=O)=O)c3)n(C)c2nn1 | < 1 nM |
| Cc1ccc([C@@H](c2ccn3c(C(F)(F)F)nnc3c2C)C(C)(C)C(=O)O)cc1CN1CC2(CC2)Oc2nc(OCCN3CCCC3)c(C)cc2S1(=O)=O | < 1 nM |
| Cc1c([C@H](CC(=O)O)c2ccc(Cl)c(CN3CC4CCCCN4c4ncc(F)cc4S3(=O)=O)c2)ccn2c(C(F)(F)F)nnc12 (some centres not stated) | < 1 nM |
| Cc1ccc(C(CC(=O)O)c2ccn3c(C(F)F)nnc3c2C)cc1CN1CC2(CC2)Oc2ncc(Cl)cc2S1(=O)=O (configuration not stated) | < 1 nM |
| Cc1cnc2c(c1)S(=O)(=O)N(Cc1cc(C(c3ccn4c(C(F)(F)F)nnc4c3C)C(C)(C)C(=O)O)cnc1C)CC1(CCOCC1)O2 (configuration not stated) | < 1 nM |
| Cc1cc2cc(C(CC(=O)O)c3ccc(C)c(CN4C[C@@H]5CCCCN5c5ncccc5S4(=O)=O)c3)n(C)c2nn1 (some centres not stated) | < 1 nM |
| Cc1ccc([C@@H](CC(=O)O)c2ccc3c(nnn3CC3CC3)c2C)cc1CN1C[C@H]2CCCCN2c2ncccc2S1(=O)=O | < 1 nM |
| CC[C@@H]1CN(Cc2cc([C@@H](CC(=O)O)c3cc(OC(F)F)c4c(c3)nnn4C)ccc2C)S(=O)(=O)c2cccnc2O1 | < 1 nM |
| Cc1ccc([C@@H](c2ccn3c(C(F)F)nnc3c2C)C(C)(C)C(=O)O)cc1CN1CC2(COC2)Oc2ncccc2S1(=O)=O | < 1 nM |
| CCn1nnc2c(C)c([C@@H](CC(=O)O)c3ccc(C)c(CN4C[C@@H]5CCCN5c5ccccc5S4(=O)=O)c3)ccc21 | < 1 nM |
| Cc1ccc([C@@H](CC(=O)O)c2ccn3c(C(F)F)nnc3c2C)cc1CN1CC2(CCOCC2)Oc2ccc(F)cc2S1(=O)=O | < 1 nM |
| Cc1ncc([C@H](c2ccc3c(nnn3C3CC3)c2C)C(C)(C)C(=O)O)cc1CN1CC2(CCOCC2)Oc2ncccc2S1(=O)=O | < 1 nM |
| Cc1ccc([C@@H](CC(=O)O)c2ccn3c(C(F)(F)F)nnc3c2C)cc1CN1CC2(COC2)Oc2ncccc2S1(=O)=O | < 1 nM |
| Cc1ccc([C@H](c2ccn3c(C4CC4)nnc3c2C)C(C)(C)C(=O)O)cc1CN1CC2(COC2)Oc2ncccc2S1(=O)=O | < 1 nM |
| Cc1ccc([C@H](c2ccn3c(C(F)(F)F)nnc3c2C)C(C)(C)C(=O)O)cc1CN1CC2(CCOCC2)Oc2nc(N[C@@H](C)CCO)c(C)cc2S1(=O)=O | < 1 nM |

| SMILES | Kd |
| --- | --- |
| Cc1ccc(C(CC(=O)O)c2ccn3c(C(F)(F)F)nnc3c2C)nc1CN1C[C@@H]2CCCCN2c2ncc(F)cc2S1(=O)=O (some centres not stated) | < 1 nM |
| Cc1ccc([C@H](CC(=O)O)c2ccn3c(C(F)(F)F)nnc3c2C)cc1CN1C[C@@H]2CCN2c2ncccc2S1(=O)=O | < 1 nM |
| Cc1ccc([C@@H](c2ccn3c(C(F)F)nnc3c2C)C(C)(C)C(=O)O)nc1CN1CC2(CCOCC2)Oc2nc(OCCN3CCCC3)c(C)cc2S1(=O)=O | < 1 nM |
| CCn1nnc2c(C)c(C(CC(=O)O)c3ccc(C)c(CN4C[C@H]5CCCCN5c5ncccc5S4(=O)=O)n3)ccc21 (some centres not stated) | < 1 nM |
| Cc1ccc([C@H](CC(=O)O)c2ccn3c(C(F)(F)F)nnc3c2C)cc1CN1CC2(CC2)Oc2ncc(F)cc2S1(=O)=O | < 1 nM |
| Cc1cnc2c(c1)S(=O)(=O)N(Cc1cc(C(c3ccc4c(nnn4C4CC4)c3C)C(C)(C)C(=O)O)cnc1C)CC1(CC1)O2 (configuration not stated) | < 1 nM |
| Cc1ccc([C@@H](CC(=O)O)c2ccn3c(C(F)F)nnc3c2C)cc1CN1C[C@@H]2CCCCN2c2ncccc2S1(=O)=O | < 1 nM |
| Cc1ccc([C@@H](c2ccn3c(C(F)(F)F)nnc3c2C)C(C)(C)C(=O)O)cc1CN1C[C@@]2(CCOC2)Oc2ncccc2S1(=O)=O | < 1 nM |
| Cc1ccc([C@H](CC(=O)O)c2ccn3c(C(F)(F)F)nnc3c2C)cc1CN1CC2(CC2)Oc2ncc(Cl)cc2S1(=O)=O | < 1 nM |
| Cc1ccc([C@H](c2ccn3c(C(F)(F)F)nnc3c2C)C(C)(C)C(=O)O)cc1CN1CC2(CCOCC2)Oc2nc(NCCN3CCOCC3)c(C)cc2S1(=O)=O | < 1 nM |
| Cc1ncc([C@@H](c2ccc3c(nnn3C3CC3)c2C)C(C)(C)C(=O)O)cc1CN1CC2(COC2)Oc2ncccc2S1(=O)=O | < 1 nM |
| CCn1nnc2c(C)c(C(CC(=O)O)c3ccc(C)c(CN4CC5(CC5)Oc5ncccc5S4(=O)=O)n3)ccc21 (configuration not stated) | < 1 nM |
| Cc1ccc(C(CC(=O)O)c2ccn3c(C(F)F)nnc3c2C)cc1CN1C[C@]2(C)CCCN2c2ncccc2S1(=O)=O (some centres not stated) | < 1 nM |
| CCn1nnc2c(C)c([C@H](CC(=O)O)c3ccc(C)c(CN4C[C@@H]5CCCCN5c5ncccc5S4(=O)=O)n3)ccc21 | < 1 nM |
| Cc1ccc(C(CC(=O)O)c2cc(OC3CC3)c3c(c2)nnn3C)cc1CN1C[C@H]2CCCCN2c2ncccc2S1(=O)=O (some centres not stated) | < 1 nM |
| Cc1ccc(C(CC(=O)O)c2ccc3c(nnn3CC3CC3)c2C)cc1CN1C[C@H]2CCCN2c2ncccc2S1(=O)=O (some centres not stated) | < 1 nM |
| Cc1ccc([C@H](CC(=O)O)c2ccn3c(C(F)F)nnc3c2C)cc1CN1C[C@@H]2CCCN2c2ncc(C#N)cc2S1(=O)=O | < 1 nM |
| Cc1ccc([C@@H](CC(=O)O)c2ccc3c(nnn3CC3CC3)c2C)cc1CN1C[C@H]2CCCN2c2ncccc2S1(=O)=O | < 1 nM |
| Cc1ccc(C(CC(=O)O)c2ccn3c(C(F)(F)F)nnc3c2C)cc1CN1CC(C)(C)Oc2ncccc2S1(=O)=O (configuration not stated) | < 1 nM |
| Cc1ccc([C@@H](CC(=O)O)c2ccc3c(nnn3CC3CC3)c2C)cc1CN1C[C@@H]2CCCCN2c2ncccc2S1(=O)=O | < 1 nM |
| Cc1ccc([C@@H](c2ccn3c(C(F)(F)F)nnc3c2C)C(C)(C)C(=O)O)cc1CN1CC2(CCOCC2)Oc2nc(OCCN3CCOCC3)ccc2S1(=O)=O | < 1 nM |
| Cc1ccc([C@H](CC(=O)O)c2ccn3c(C(F)(F)F)nnc3c2C)cc1CN1C[C@H]2CCCN2c2ncccc2S1(=O)=O | < 1 nM |
| Cc1ccc([C@@H](c2ccn3c(C(F)F)nnc3c2C)C(C)(C)C(=O)O)cc1CN1CC2(CCOCC2)Oc2ncccc2S1(=O)=O | < 1 nM |

| SMILES | Kd |
| --- | --- |
| CCn1nnc2c(C)c(C(CC(=O)O)c3ccc(C)c(CN4C[C@@H]5CCCN5c5ncccc5S4(=O)=O)c3)ccc21 (some centres not stated) | < 1 nM |
| Cc1ccc(C(CC(=O)O)c2ccn3c(C(F)F)nnc3c2C)cc1CN1CC2(CC2)Oc2ncccc2S1(=O)=O (configuration not stated) | < 1 nM |
| Cc1ccc([C@@H](CC(=O)O)c2ccn3c(C(F)F)nnc3c2C)cc1CN1CC2(CCOCC2)Oc2ncc(F)cc2S1(=O)=O | < 1 nM |
| Cc1ccc([C@@H](CC(=O)O)c2ccn3c(C(F)(F)F)nnc3c2C)cc1CN1CC2(COC2)Oc2ccccc2S1(=O)=O | < 1 nM |
| Cc1ccc([C@@H](c2ccn3c(C(F)F)nnc3c2C)C(C)(C)C(=O)O)nc1CN1CC2(CCOCC2)Oc2nc(OCCN3CCCCC3)c(C)cc2S1(=O)=O | < 1 nM |
| Cc1ccc(C(CC(=O)O)c2ccc3c(nnn3CC3CC3)c2C)cc1CN1CC2(CC2)N(C)c2ncccc2S1(=O)=O (configuration not stated) | < 1 nM |
| Cc1ccc([C@@H](CC(=O)O)c2ccn3c(C(F)(F)F)nnc3c2C)nc1CN1C[C@H]2CCCCN2c2ncc(Cl)cc2S1(=O)=O | < 1 nM |
| Cc1ccc([C@@H](c2ccn3c(C(F)(F)F)nnc3c2C)C(C)(C)C(=O)O)cc1CN1CC2(CNC2)Oc2ncccc2S1(=O)=O | < 1 nM |
| Cc1ccc([C@@H](CC(=O)O)c2ccn3c(C(F)(F)F)nnc3c2C)nc1CN1C[C@H]2CCCCN2c2ncc(C#N)cc2S1(=O)=O | < 1 nM |
| Cc1c(C(CC(=O)O)c2ccc(Cl)c(CN3CC4CCCCN4c4ncc(F)cc4S3(=O)=O)c2)ccn2c(C(F)(F)F)nnc12 (configuration not stated) | < 1 nM |
| CC[C@@H]1CN(Cc2cc(C(CC(=O)O)c3ccn4c(C(F)(F)F)nnc4c3)ccc2C)S(=O)(=O)c2cccnc2O1 (some centres not stated) | < 1 nM |
| Cc1ccc([C@H](c2ccn3c(C(F)(F)F)nnc3c2C)C(C)(C)C(=O)O)cc1CN1C[C@]2(CCOC2)Oc2ncccc2S1(=O)=O | < 1 nM |
| Cc1cnc2c(c1)S(=O)(=O)N(Cc1cc([C@H](CC(=O)O)c3ccn4c(C(F)(F)F)nnc4c3C)ccc1C)CC1(CCOCC1)O2 | < 1 nM |
| Cc1ccc([C@H](CC(=O)O)c2ccn3c(C)nnc3c2)cc1CN1C[C@H]2CCCN2c2ncccc2S1(=O)=O | < 1 nM |
| Cc1ccc([C@H](CC(=O)O)c2ccn3c(C(F)(F)F)nnc3c2C)cc1CN1C[C@H]2CCCN2c2ncc(C#N)cc2S1(=O)=O | < 1 nM |
| Cc1ccc([C@H](CC(=O)O)c2ccn3c(C(F)(F)F)nnc3c2C)cc1CN1C[C@@H]2CCCCN2c2ncc(Cl)cc2S1(=O)=O | < 1 nM |
| Cc1ncc([C@H](c2ccn3c(C(F)(F)F)nnc3c2C)C(C)(C)C(=O)O)cc1CN1CC2(CCOCC2)Oc2ncccc2S1(=O)=O | < 1 nM |
| Cc1ccc([C@@H](c2ccn3c(C(F)F)nnc3c2C)C(C)(C)C(=O)O)cc1CN1CC2(CC2)Oc2nc(OCCN3CCCCC3)c(C)cc2S1(=O)=O | < 1 nM |
| Cc1ccc([C@@H](c2ccn3c(C(F)(F)F)nnc3c2C)C(C)(C)C(=O)O)cc1CN1CC2(CCOCC2)Oc2nc(OCCN3CCCCC3)c(C)cc2S1(=O)=O | < 1 nM |
| Cc1ccc(C(CC(=O)O)c2ccn3c(C(F)(F)F)nnc3c2C)cc1CN1C[C@H]2CCCN2c2ncccc2S1(=O)=O (some centres not stated) | < 1 nM |
| Cc1ccc([C@H](c2ccn3c(C(F)F)nnc3c2C)C(C)(C)C(=O)O)nc1CN1CC2(CC2)Oc2nc(OCCN3CCCC3)c(C)cc2S1(=O)=O | < 1 nM |
